According to paper PMC4552745, “Novel Gallate Triphenylphosphonium Derivatives with Potent Antichagasic Activity” (PLoS ONE, 2015):

How the values were obtained:
[1] = test system: T. cruzi in infected RAW 264.7 cells; assay: Parasite DNA load by real-time PCR in infected RAW cells; format: cell-based, Trypanosoma cruzi; conditions: infected RAW cells, 48 hours after treatment, Fig 4
From the text: DNA from infected RAW cells (murine macrophages, ATCC number: TIB-71) was isolated using Wizard Genomic DNA Purification Kit (Promega, USA) following the manufacturer’s instructions. DNA was quantified through […] absorbance measurements using a Varioskan spectrophotometer (Thermo Scientific, USA). To evaluate the parasite DNA load, we used a TaqMan-Duplex system, as described previously. To amplify an 84-bp T. cruzi satellite DNA sequence, we used the following primers: TcSt 4-Fw (5’-[…]-3’) and TcSt 1-Rev (5’-[…]-3’) and the TcSt-1 probe (5’-FAM-[…]-BHQ-1-3’). As an endogenous control, we used the Mus-F (5’-[…]-3’) and Mus-R (5’-[…]-3’) primers coupled with the MM-1 probe (5’-HEX-AAAGCATCTGCCTCCG-BHQ-1-3’) to amplify a 67-bp Mus musculus GAPDH sequence. The primers and probes were designed using Primer Express 3.0 Software (Applied Biosystems, USA) and manufactured by Integrated DNA Technologies (Coralville, IA, USA). The PCR reactions were performed using an ABI7300 real-time thermocycler (Applied Biosystems, USA). […] ROX was used as a reference dye. For both TaqMan assays, the thermal cycle consisted of a polymerase activation step carried out at 95°C for 10 min (one cycle) and a two-step amplification phase: 95°C for 15 s and 55°C for 45 s (40 cycles). Fluorescence was measured at the end of each amplification cycle. The data were analyzed using 7300 System SDS software with the SDS relative quantitation plug-in (Applied Biosystems, USA). All of the data were analyzed by the 2^-∆∆CT method, comparing the CTs of the T. cruzi gene versus that of GAPDH as well as comparing all of the samples with the controls. The parasite load is expressed as the relative DNA load compared with the controls.

[2] = test system: T. cruzi trypomastigotes (Y strain); assay: MTT reduction viability assay on isolated trypomastigotes; format: cell-based, Trypanosoma cruzi; conditions: for EC50: Trypanosoma cruzi, Y strain, 24 hours exposure, MTT assay, mean ± SD, read-out: EC50 T. cruzi trypomastigote; for Selectivity index (VERO/T. cruzi): ratio of EC50 VERO cells to EC50 T. cruzi trypomastigote; for potency relative to nifurtimox: trypomastigote viability, comparison of EC50
Method: (§1) Trypomastigotes (Y strain, DTU T. cruzi II) were obtained from infected VERO cells (Chlorocebus sabaeus kidney fibroblasts obtained from ATCC, ATCC number: CCL-81). The cells were exposed to trypomastigotes (Y strain) at a 3:1 density (trypomastigote:cell). The trypomastigotes were allowed to infect the cells for 24 h, and the supernatant was then extracted. The trypomastigotes were released from VERO cells at 4 days after infection. The parasites were harvested and collected for viability assays. The effect of the drugs on parasite viability was evaluated using the tetrazolium salt (MTT) reduction assay. […] Alternatively, VERO cells attached to the surface of 96-well plates were washed and incubated with MTT (5 mg/mL). After incubation for 4 h at 37°C, the generated formazan crystals were dissolved with 100 μL of 10% (w/v) sodium dodecyl sulfate (SDS) in 0.01 M HCl. The plates were then incubated overnight at 37°C, and the optical density (OD) was determined using a microplate reader (Labsystems Multiskan MS, Finland) at 570 nm. Under these conditions, the OD is directly proportional to the number of viable cells in each well [33, 34]. All of the experiments were performed at least three times. […] The data from each experiment were plotted using the formazan absorbance versus the log of the concentration, and the plot was fitted to the dose-response (four-parameters) equation using the software Graph Pad Prism V5.0, obtaining the EC50 value per drug and per experiment. The data are expressed as the mean ± DS of the EC50s obtained from each experiment.

VERO cells = assay: MTT reduction viability assay on VERO cells; format: cell-based; conditions: Chlorocebus sabaeus, 24 hours exposure, mean ± SD
Method: as §1, with “The” for “Trypomastigotes (Y strain, DTU T. cruzi II) were obtained from infected VERO cells (Chlorocebus sabaeus kidney fibroblasts obtained from ATCC, ATCC number: CCL-81). The cells were exposed to trypomastigotes (Y strain) at a 3:1 density (trypomastigote:cell). The trypomastigotes were allowed to infect the cells for 24 h, and the supernatant was then extracted. The trypomastigotes were released from VERO cells at 4 days after infection. The parasites were harvested and collected for viability assays. The”

T. cruzi epimastigotes = test system: T. cruzi epimastigotes; design: method as in PMID 17673202; conditions: cited from earlier work
Leishmania brasiliensis = test system: Leishmania brasiliensis; design: method as in PMID 25144225; conditions: in vitro; cited from earlier work
Trypanosoma brucei = test system: Trypanosoma brucei; design: method as in PMID 9657042, PMID 9491765; conditions: Trypanosoma brucei models; cited from earlier work
Trypanosoma cruzi = test system: Trypanosoma cruzi; design: method as in PMID 2121515; conditions: blood contaminated with Trypanosoma cruzi; cited from earlier work
[3] = test system: T. cruzi trypomastigotes (Y strain) mitochondrial permeability transition pore; assay: Mitochondrial permeability transition pore opening (calcein AM / CoCl2); format: cell-based, Trypanosoma cruzi; conditions: 5 μM, 1 hour, Fig 6B
Method: The opening of mitochondrial permeability transition pores was assessed using the calcein AM probe, adapting the method described by Huang et al (2014). Calcein-AM is a lipophilic probe that can enter the cell, including the mitochondria, and is then cleaved by cellular esterases, releasing the fluorescent probe calcein. T. cruzi trypomastigotes (Y strain, 5 x 10^6 parasites/mL) were stained with 100 nM calcein AM (Molecular Probes, Applied Biosytems, USA) and incubated at 37°C for 15 min in the presence of […] of CoCl2 to quench the cytosolic fluorescence of calcein. Then, the parasites were washed with PBS and resuspended in RPMI medium, without phenol red, supplemented with 0.3 mM of Ca^+2. The parasites were then seeded in 24-well plates and exposed to the different compounds (TPP^+-C8, TPP^+-C10, TPP^+-C11, and TPP^+-C12) at 1 or 5 μM for 1 hour. As a positive control, one group was exposed to ionomycin (0.5 μM). The samples were measured using a FACS Aria III flow cytometer (BD Biosciences, USA) with the 494/517 filter to detect calcein fluorescence. For every measurement, 5,000 events were recorded. The raw flow cytometry data were analyzed using FACSDiva 6.1 software (BD Biosciences). The results were analyzed using the median fluorescence intensity (MFI) from the frequency histograms. Thus, we used the median intensity of the control group (parasites incubated with calcein AM and CoCl2) to establish 100% of mitochondrial fluorescence, thereby establishing percent ratios between the treatment groups and the control.

For `O=C(OCCCCCCCC[P+](c1ccccc1)(c1ccccc1)c1ccccc1)c1cc(O)c(O)c(O)c1.[Br-]` [TPP^+-C8, triphenyl(8-((3,4,5-trihydroxybenzoyl)oxy)-octyl) phosphonium bromide], the “parasite load (qPCR)” value [1] was “the lowest concentrations of TPP^+-C8 increased the parasite load”, the EC50 [2] was 4.8 ± 0.9 µM and the “Selectivity index (VERO/T. cruzi)” value [2] was greater than 21. The “potency relative to nifurtimox” value [2] was “almost equal in potency to nifurtimox” and the EC50 (VERO cells) was greater than 100 µM.
For `O=C(O[C@@H]1Cc2c(O)cc(O)cc2O[C@@H]1c1cc(O)c(O)c(O)c1)c1cc(O)c(O)c(O)c1` [EGCg, (-)-epigallocatechin 3-O-gallate], the “concentration at which the antiproliferative effect is observed” value (T. cruzi epimastigotes) is given as “over 500 μM” and the “concentration at which the effect on viability is reached” value (Leishmania brasiliensis) is given as “over 60 μM”.
In the case of `CC1CS(=O)(=O)CCN1/N=C/c1ccc([N+](=O)[O-])o1` (stereo not drawn) [Nifurtimox, reference compound], the EC50 [2] is reported as 4.1 ± 0.9 µM, the “Selectivity index (VERO/T. cruzi)” value [2] is reported as greater than 24 and the EC50 (VERO cells) is reported as greater than 100 µM.
In the case of `O=C(O)c1cc(O)c(O)c(O)c1` [GA, Gallic acid], the EC50 (Trypanosoma brucei) is given as greater than 30 µM and the “concentration range at which effects are exerted” value (Trypanosoma cruzi) is given as “millimolar range”.
With `O=C(OCCCCCCCCCCC[P+](c1ccccc1)(c1ccccc1)c1ccccc1)c1cc(O)c(O)c(O)c1.[Br-]` [TPP^+-C11, triphenyl(11-((3,4,5-trihydroxybenzoyl)oxy)-undecyl) phosphonium bromide] the “parasite load (qPCR)” value [1] was “reduced the parasite load in a concentration-dependent manner”, the EC50 [2] was 9.2 ± 0.1 µM and the “Selectivity index (VERO/T. cruzi)” value [2] was greater than 11. The “potency relative to nifurtimox” value [2] was “almost equal in potency to nifurtimox”, the EC50 (VERO cells) was greater than 100 µM and the “mitochondrial calcein fluorescence (median fluorescence intensity)” value [3] was 41 % of the control.
